Values after ≈ are worked out from the molar mass of the structure shown. Read-outs that look alike come from different tables or passages of the source. Where a SMILES comes first, the peptide text is derived from it. Side-chain parts run from the residue outwards. [ ]: non-standard residue; d: D form. The star is where a group is joined. Lys(α,ε-(ArgTrp)2) = N=C(N)NCCC[C@H](N)C(=O)N[C@@H](Cc1c[nH]c2ccccc12)C(=O)NCCCC[C@H](NC(=O)[C@H](Cc1c[nH]c2ccccc12)NC(=O)[C@@H](N)CCCNC(=N)N)C(=O)*; βAla = NCCC(=O)O
What was measured:
[1] = type: cell-based, mouse
Experimental: The cells were grown in 96 well plates and a 100 μl aliquot of a three fold serial dilution of the peptides was dispensed into each well. Buffer alone was used as the positive control and H2O2 was used as the negative control. MTS […] was added to each well prior to incubation to visualize the cells. The cells were incubated for 24 hours and their absorbance were measured at λ=495 nm.

[2] = dye leakage assay (calcein); details: POPG vesicles
Text: To confirm that the multivalent AMPs interact with and disrupt phospholipid bilayers, we measured the ability of dendrimer (RW)4D to induce leakage of calcein, entrapped within the interior of large unilamellar vesicles of model membrane POPG (1-Palmitoyl-2-Oleoyl-sn-Glycero-3-[Phospho-rac-(1-glycerol)]) with negatively charged head group. The leakage of vesicle contents to the AMPs was monitored by the release of calcein encapsulated in large unilamellar vesicles. The method of preparation of dye-encapsulated vesicles has been reported in detail (Torchilin and Weissig 2003). In short, large unilamellar POPG vesicles were prepared by reverse-phase evaporation. After evaporating the organic solvent, residue were hydrated with the calcein solution (100 mM) in buffer (10 mM Tris-HCl pH 7.4). The free calcein was removed by eluting through a Sephadex G-50 size-exclusion column in the same buffer. The leakage process was monitored by following the increase of calcein fluorescence intensity at 515 nm (excitation at 490 nm) after 20 μL of AMPs at different concentrations were added to 10 μL of vesicle solution mixed in 2 mL of TBS buffer. Complete leakage was achieved by addition of 100 uL of 20% Triton X-100 to the 2 ml solution, and the corresponding fluorescence intensity was used as 100% leakage for the calculation of leakage fraction.

[3] = tested on: multi-drug resistant MRSA gram-positive bacteria; assay: killing of multi-drug resistant bacteria, one hour contact; type: cell-based
[4] = tested on: E. coli(D31) gram-negative bacteria; assay: as above; type: cell-based
[5] = antibacterial activity under physiological conditions (90% human serum); type: cell-based
Experimental: In a further experiment, antibacterial activity under physiological conditions was tested. The MIC50 was determined in the presence of 90% human serum, respectively.

[6] = tested on: Acineto Baumannii; assay: killing and growth inhibition of Acineto Baumannii; type: cell-based
[7] = tested on: gram-positive MRSA; assay: LIVE/DEAD staining assay, membrane damage; type: cell-based; details: 1 hr incubation; (RW)4D 10 uM
[8] = tested on: gram-negative A. baumannii; assay: LIVE/DEAD staining assay, membrane damage; type: cell-based; details: 1 hr incubation; (RW)4D 10 uM
[9] = tested on: E. coli (RP437) biofilm; assay: biofilm formation in 96 well plates, crystal violet; type: cell-based; details: 24 hours
Text: The effect of dendrimers of the invention on E. coli biofilm formation was further examined and measured. The development of a bacterial biofilm allows for the bacteria to become more antibiotic resistant. […] Assay summary: E. coli (RP437) was used to form biofilms in 96 well plates with and without different concentrations of peptides.

[10] = tested on: E. coli RP437 biofilm; assay: two-day biofilm on stainless steel coupons, Live/Dead staining; type: cell-based; details: 25 μg/mL, 48 hours
Experimental: E. coli biofilm inhibition by (RW)4D was also studied on stainless steel coupons. Microscope images were taken after staining the two-day biofilms with Live/Dead staining solution. […] Assay summary: E. coli RP437 was used to form biofilms in a plastic dish with stainless steel coupons and different concentrations of peptides. After 48 hours incubation, coupon was soaked in NaCl buffer containing staining component in the dark for 15 mins.

[11] = tested on: ampicillin- and streptomycin-resistant E. coli (D31)
[12] = tested on: multi-drug resistant strain S. aureus
[13] = tested on: B. Subtilis (ATCC 6633); details: ATCC 6633
[14] = tested on: B. anthracis (32F2 Sterne)
[15] = tested on: E. faecalis (29212); details: 29212
[16] = tested on: three other gram-positive bacteria; details: three gram-positive bacteria
[17] = tested on: trypsin; details: trypsin at high concentration, various time intervals up to 24 hrs
[18] = tested on: Multidrug-resistant gram-positive S. aureus; details: over 250 generations
[19] = tested on: gram-negative E. coli (D31); details: over 250 generations
[20] = tested on: fresh sheep erythrocytes; assay: hemolytic assay; type: cell-based; details: sheep, 30 min, pH 7.2
Experimental: Hemolytic activity of model peptides was assessed on fresh sheep erythrocytes (Fitzgerald Inc., Concord, Mass.). […] The resulting supernatant was diluted by a factor of 40 in distilled water. The absorbances of the supernatant at λ=540 nm (OD540) were measured in the UV Spectrophotometer. […] Hemolytic index (HI) was defined as HI═HD50/IC50.

[21] = tested on: ampicillin- and streptomycin-resistant E. coli (D31); assay: microbe, parasite or virus in culture; details: Escherichia coli, read-out: MIC50 E. coli
[22] = tested on: multi-drug resistant strain S. aureus; assay: microbe, parasite or virus in culture; details: Staphylococcus aureus, read-out: MIC50 S. aureus
[23] = tested on: B. Subtilis (ATCC 6633); assay: microbe, parasite or virus in culture; details: Bacillus subtilis, ATCC6633, read-out: MIC50 B. subtilis
[24] = tested on: B. anthracis (32F2 Sterne); assay: microbe, parasite or virus in culture; details: Bacillus anthracis, read-out: MIC50 B. anthracis
[25] = tested on: E. faecalis (29212); assay: microbe, parasite or virus in culture; details: Enterococcus faecalis, read-out: MIC50 E. faecalis
[26] = tested on: E. coli RP437 biofilms; assay: biofilm assay on stainless steel coupons with LIVE/DEAD staining; type: cell-based; details: for Biofilm coefficients: Dead cells / Biofilm coefficients: Live cells / Biofilm coefficients: Total biofilms: 24 hours
Experimental: The stainless steel (S.S.) coupons were polished using a fine 3M SandBlaster sandpaper, then autoclaved for sterilization. […] For all the treatments, duplicate coupons were tested. To analyze the E. coli biofilms using fluorescence microscopy, the biofilms were stained with […] bacterial viability kit (Cat# L7012, Invitrogen Corporation, California). Each S.S. coupon was washed gently by dipping vertically in 0.85% NaCl buffer three times (change to fresh buffer after each dipping). Then, they were soaked in 1 mL of 0.85% NaCl buffer containing 3 μl of staining component A and B (1:4) in the dark for 15 mins. Images were taken by AXIO Imager.M1 (Carl Zeiss, German). Five images were taken for each sample. Data were obtained and are presented in Table 3, below, as well as in FIG. 5.

[27] = tested on: E. coli RP437 biofilms; assay: CFU assay of biofilm inhibition; type: cell-based; details: 25 μg/mL, 24 hours
Experimental: Twenty-four hour biofilms of E. coli RP437 were grown on stainless steel coupons in LB medium containing up to 100 μg/mL of the three antimicrobial peptides—dendrimer, hexamer, and octamer. CFU counts were used to determine the extent of inhibition. The procedure of the study is as follows.
Overnight cultures of E. coli RP437 grown in LB medium were used to inoculate 5 mL of LB supplemented with up to 100 μg/mL of each peptide and polished, sterile 316L stainless steel coupons (1.2 cm×0.6 cm×0.1 cm). The cultures were incubated at 37° C. for 24 hours. The coupons were then removed from the bacterial culture using sterile forceps and washed three times in 0.85% NaCl buffer and placed in round-bottom tubes containing 3 mL of fresh NaCl buffer. These were then sonicated for 1.5 minutes in a water bath. The NaCl buffer containing bacterial cells was serially diluted and 60 μL of 1000 and 5000 fold dilutions were plated on LB agar plates. The plates were incubated at 37° C. overnight. The number of CFUs for each sample was counted after incubation. The experiment was conducted in duplicate.

[28] = mean over no, low and high salt

N=C(N)NCCC[C@H](N)C(=O)N[C@@H](Cc1c[nH]c2ccccc12)C(=O)NCCCC[C@H](NC(=O)[C@H](Cc1c[nH]c2ccccc12)NC(=O)[C@@H](N)CCCNC(=N)N)C(=O)NCCCC[C@H](NC(=O)[C@H](CCCCNC(=O)[C@H](Cc1c[nH]c2ccccc12)NC(=O)[C@@H](N)CCCNC(=N)N)NC(=O)[C@H](Cc1c[nH]c2ccccc12)NC(=O)[C@@H](N)CCCNC(=N)N)C(=O)NCCC(N)=O [Den(RW)4D] (H-RWK([Trp-Arg])K(Lys(α,ε-(ArgTrp)2))[βAla]-NH2)
IC50 [1]: ~1380 µg/mL (≈ 750 µM) | concentration at which peptide caused 50% dye leakage [2]: 0.5 µg/mL | decrease in bacteria remaining after contact [3]: 3 log | decrease in bacteria remaining after contact [4]: 3 log | antimicrobial activity in the presence of human serum [5]: human serum cannot completely block the antimicrobial activity | killing and growth inhibition [6]: can kill the bacteria and inhibit its growth at very low concentration | membrane damage / killing by Live/Dead staining [7]: show damaged membranes | membrane damage / killing by Live/Dead staining [8]: show damaged membranes | inhibition of biofilm formation [9]: exhibited inhibition of E. coli biofilm formation | total biofilm formation on stainless steel coupons compared with blank control [10]: significantly reduced | increase in MIC50 value from no salt to high-salt condition [11]: 50% | MIC50 E. coli ([11]; 0 mM NaCl): 3.0 µg/mL (≈ 1.63 µM) | MIC50 E. coli ([11]; 75 mM NaCl): 3.9 µg/mL (≈ 2.12 µM) | MIC50 E. coli ([11]; 150 mM NaCl): 4.5 µg/mL (≈ 2.44 µM) | mean MIC50 against E. coli [11, 28]: 3.8 µg/mL | MIC50 S. aureus ([12]; 0 mM NaCl): 10 µg/mL (≈ 5.43 µM) | MIC50 S. aureus ([12]; 75 mM NaCl): 15 µg/mL (≈ 8.14 µM) | MIC50 S. aureus ([12]; 150 mM NaCl): 16 µg/mL (≈ 8.69 µM) | mean MIC50 against S. aureus [12, 28]: 13.6 µg/mL | MIC50 B. subtilis [13]: 3.5 µg/mL (≈ 1.9 µM) | MIC50 B. anthracis [14]: 13 µg/mL (≈ 7.06 µM) | MIC50 E. faecalis [15]: 5.5 µg/mL (≈ 2.99 µM) | mean MIC50 against all test organisms [16]: 7.4 µg/mL | inactivation of antibacterial activity by trypsin [17]: resistant to inactivation by trypsin | development of resistance (MIC90) [18]: did not show resistance | development of resistance (MIC90) [19]: did not show resistance

CC(C)(O/N=C(\C(=O)N[C@@H]1C(=O)N2C(C(=O)[O-])=C(C[n+]3ccccc3)CS[C@H]12)c1csc(N)n1)C(=O)O [Ceftazidime]
HD50 (peptide concentration corresponding to 50% hemolysis) [20]: >2000 µg/mL | MIC50 E. coli ([11]; 75 mM NaCl): 44 µg/mL (≈ 80.5 µM) | MIC50 E. coli ([11]; 150 mM NaCl): 44 µg/mL (≈ 80.5 µM) | MIC50 S. aureus ([12]; 75 mM NaCl): 63 µg/mL (≈ 115 µM) | MIC50 S. aureus ([12]; 150 mM NaCl): 63 µg/mL (≈ 115 µM) | MIC50 [21]: 44 µg/mL (≈ 80.5 µM) | MIC50 [22]: 63 µg/mL (≈ 115 µM) | MIC50 [23]: 6.2 µg/mL (≈ 11.3 µM) | MIC50 [24]: 91 µg/mL (≈ 166 µM) | MIC50 [25]: 14 µg/mL (≈ 25.6 µM)

N=C(N)NCCC[C@H](N)C(=O)N[C@@H](Cc1c[nH]c2ccccc12)C(=O)NCCCC[C@H](NC(=O)[C@H](Cc1c[nH]c2ccccc12)NC(=O)[C@@H](N)CCCNC(=N)N)C(=O)NCCCC[C@H](NC(=O)[C@H](CCCCNC(=O)[C@H](Cc1c[nH]c2ccccc12)NC(=O)[C@@H](N)CCCNC(=N)N)NC(=O)[C@H](Cc1c[nH]c2ccccc12)NC(=O)[C@@H](N)CCCNC(=N)N)C(=O)NCCC(N)=O [Dendrimer] (H-RWK([Trp-Arg])K(Lys(α,ε-(ArgTrp)2))[βAla]-NH2; N-terminus and C-terminus assumed)
Total biofilm formation compared with blank control (ANOVA) ([26]; 25 μg/mL): significantly reduced | Biofilm coefficients: Dead cells ([26]; 25 μg/mL): 7.11% ± 1.93% | Biofilm coefficients: Live cells ([26]; 25 μg/mL): 4.42% ± 2.30% | Biofilm coefficients: Total biofilms ([26]; 25 μg/mL): 11.16% ± 3.09% | Total biofilm formation compared with blank control (ANOVA) ([26]; 50 μg/mL): significantly reduced | Biofilm coefficients: Dead cells ([26]; 50 μg/mL): 5.05% ± 1.47% | Biofilm coefficients: Live cells ([26]; 50 μg/mL): 2.32% ± 1.12% | Biofilm coefficients: Total biofilms ([26]; 50 μg/mL): 7.06% ± 1.91% | reduction of viable biofilm cell counts [27]: ineffective

CN[C@H](CC(C)C)C(=O)N[C@H]1C(=O)N[C@@H](CC(N)=O)C(=O)N[C@H]2C(=O)N[C@H]3C(=O)N[C@H](C(=O)N[C@H](C(=O)O)c4cc(O)cc(O)c4-c4cc3ccc4O)[C@H](O)c3ccc(c(Cl)c3)Oc3cc2cc(c3O[C@@H]2O[C@H](CO)[C@@H](O)[C@H](O)[C@H]2O[C@H]2C[C@](C)(N)[C@H](O)[C@H](C)O2)Oc2ccc(cc2Cl)[C@H]1O [vancomycin, reference compound]
membrane damage / killing by Live/Dead staining [7]: did not actively kill | membrane damage / killing by Live/Dead staining [8]: did not actively kill

Reference: patent US7902327B2, “Dendrimeric peptides, pharmaceutical compositions and methods of using the same” (New York University School of Medicine, priority 2007, dated 2011)
